From ChEMBL document CHEMBL5053551, “Structure-Based Design of Dual Partial Peroxisome Proliferator-Activated Receptor γ Agonists/Soluble Epoxide Hydrolase Inhibitors” (J Med Chem, 2021)
pEC50: −log10 of the molar value. ≈ marks a conversion by molar mass, not a printed value. Calls of active or inactive are those of the source. No cut-off for these calls is given here.

Experiments:
[1] = biological target: T1, Peroxisome proliferator-activated receptor gamma (Homo sapiens, UniProt P37231); test: Partial agonist activity at GAL4-tagged human PPARgamma LBD expressed in HEK293T cells incubated for 12 to 14 hrs by dual-Glo luciferase assay; format: cell-based
T1 sequence (P37231 whole entry): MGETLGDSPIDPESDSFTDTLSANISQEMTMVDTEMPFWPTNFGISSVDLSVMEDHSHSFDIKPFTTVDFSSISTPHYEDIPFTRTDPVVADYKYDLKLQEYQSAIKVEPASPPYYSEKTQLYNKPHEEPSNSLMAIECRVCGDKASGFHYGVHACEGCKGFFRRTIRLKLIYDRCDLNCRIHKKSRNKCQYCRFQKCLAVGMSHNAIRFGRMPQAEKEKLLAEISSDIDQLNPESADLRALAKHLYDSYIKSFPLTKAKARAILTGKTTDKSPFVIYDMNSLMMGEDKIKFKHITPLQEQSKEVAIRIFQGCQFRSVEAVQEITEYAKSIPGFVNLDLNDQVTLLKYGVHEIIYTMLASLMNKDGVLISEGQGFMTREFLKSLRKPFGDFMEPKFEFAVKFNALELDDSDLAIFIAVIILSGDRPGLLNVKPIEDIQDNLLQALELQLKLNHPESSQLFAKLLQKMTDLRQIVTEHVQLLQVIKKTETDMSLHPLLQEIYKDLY

[2] = Solubility of compound in DPBS buffer; format: physicochemical
[3] = Stability of compound in Sprague-Dawley rat liver microsomes assessed as half life at 10 uM preincubated for 5 mins in presence of NADPH regenerating system followed by microsomal addition and measured upto 60 mins by HPLC analysis; format: ADME, Microsome; settings: time 65 min
[4] = Stability of compound in BALB/c mouse liver microsomes assessed as half life at 10 uM preincubated for 5 mins in presence of NADPH regenerating system followed by microsomal addition and measured upto 60 mins by HPLC analysis; format: ADME, Microsome; settings: time 65 min
[5] = Stability of compound in human liver microsomes assessed as half life at 10 uM preincubated for 5 mins in presence of NADPH regenerating system followed by microsomal addition and measured upto 60 mins by HPLC analysis; format: ADME, Microsome; settings: time 65 min
[6] = system: HepG2; test: Cytotoxicity against human HepG2 cells assessed as reduction in ATP level upto 10 uM after 72 hrs by CellTiter-glo luminescence assay; format: cell-based; settings: hepg2, 72 h
[7] = system: HepG2; test: Cytotoxicity against human HepG2 cells assessed as reduction in ATP level at above 25 to 50 uM after 72 hrs by CellTiter-glo luminescence assay; format: cell-based; settings: hepg2, 72 h, dose 25-50 µM
[8] = biological target: T2, Peroxisome proliferator-activated receptor alpha (Homo sapiens) (UniProt Q07869); test: Partial agonist activity at GAL4-tagged human PPARalpha LBD expressed in HEK293T cells at 3 uM incubated for 12 to 14 hrs by dual-Glo luciferase assay; format: cell-based; settings: time 12-14 hrs
T2 sequence (whole entry): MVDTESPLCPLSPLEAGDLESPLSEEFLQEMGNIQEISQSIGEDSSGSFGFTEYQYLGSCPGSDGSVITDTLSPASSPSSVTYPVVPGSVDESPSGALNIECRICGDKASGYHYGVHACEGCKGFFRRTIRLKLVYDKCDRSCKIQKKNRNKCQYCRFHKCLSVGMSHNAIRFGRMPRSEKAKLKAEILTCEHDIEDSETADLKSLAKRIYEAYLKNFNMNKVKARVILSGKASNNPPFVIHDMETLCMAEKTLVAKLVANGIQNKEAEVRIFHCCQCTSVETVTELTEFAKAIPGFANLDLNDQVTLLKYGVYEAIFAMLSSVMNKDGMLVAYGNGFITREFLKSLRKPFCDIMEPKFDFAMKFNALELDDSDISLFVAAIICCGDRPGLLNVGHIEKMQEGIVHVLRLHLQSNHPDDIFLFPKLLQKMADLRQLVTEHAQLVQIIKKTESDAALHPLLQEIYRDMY

[9] = biological target: T3, Vitamin D3 receptor (Homo sapiens) (UniProt P11473); test: Partial agonist activity at GAL4-tagged human VDR LBD expressed in HEK293T cells at 3 uM incubated for 12 to 14 hrs by dual-Glo luciferase assay; format: cell-based; settings: filed as partial agonist, time 12-14 hrs
T3 sequence (whole entry): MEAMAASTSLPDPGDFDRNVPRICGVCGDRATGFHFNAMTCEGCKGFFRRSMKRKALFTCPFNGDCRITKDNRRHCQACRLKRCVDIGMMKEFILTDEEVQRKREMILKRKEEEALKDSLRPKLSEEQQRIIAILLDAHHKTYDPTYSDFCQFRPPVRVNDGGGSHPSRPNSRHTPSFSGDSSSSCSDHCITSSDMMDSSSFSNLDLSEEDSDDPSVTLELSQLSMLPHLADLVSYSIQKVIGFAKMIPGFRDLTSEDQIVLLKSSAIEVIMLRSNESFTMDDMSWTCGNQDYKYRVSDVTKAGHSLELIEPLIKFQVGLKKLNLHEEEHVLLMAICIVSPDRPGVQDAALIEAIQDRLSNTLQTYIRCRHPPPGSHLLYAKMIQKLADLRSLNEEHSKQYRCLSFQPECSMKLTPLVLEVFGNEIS

[10] = biological target: T4, Nuclear receptor subfamily 1 group I member 3 (Homo sapiens, UniProt Q14994); test: Partial agonist activity at GAL4-tagged human CAR LBD expressed in HEK293T cells at 3 uM incubated for 12 to 14 hrs by dual-Glo luciferase assay; format: cell-based; settings: time 12-14 hrs
T4 sequence (Q14994 whole entry): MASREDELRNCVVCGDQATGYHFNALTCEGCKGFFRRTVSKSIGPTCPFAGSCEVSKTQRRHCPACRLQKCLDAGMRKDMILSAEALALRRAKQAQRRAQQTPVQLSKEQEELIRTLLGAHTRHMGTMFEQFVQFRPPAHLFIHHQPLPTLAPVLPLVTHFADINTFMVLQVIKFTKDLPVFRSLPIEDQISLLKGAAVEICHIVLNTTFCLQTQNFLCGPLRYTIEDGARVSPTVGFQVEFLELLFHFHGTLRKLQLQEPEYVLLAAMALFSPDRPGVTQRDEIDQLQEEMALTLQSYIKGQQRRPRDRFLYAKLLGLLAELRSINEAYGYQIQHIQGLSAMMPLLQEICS

[11] = biological target: T1, Peroxisome proliferator-activated receptor gamma; test: Partial agonist activity at sGSF-PPARgamma (unknown origin) assessed as CBP-1 recruitment by HT-FRET assay
[12] = biological target: T5, Peroxisome proliferator-activated receptor gamma (Homo sapiens) (UniProt P37231); test: Partial agonist activity at recombinant sGSF-PPARgamma (unknown origin) assessed as CBP-1 recruitment by HT-FRET assay relative to control
T5 sequence (whole entry): T1 sequence (P37231 whole entry)

[13] = system: 3T3-L1; test: Induction of cell differentiation in mouse 3T3-L1 cells assessed as increase in differentiation cocktail-induced lipid accumulation at 0.3 to 3 uM incubated for 2 days by Oil-Red O staining based assay; format: functional; settings: dose 0.3-3 µM, time 2.0 day

pEC50 [1] | solubility [2] [µM] | half-life at 10 µM [3] [h] | half-life at 10 µM [4] [h] | half-life at 10 µM [5] [h] | Activity [8] | Activity [9] | Activity [10] | pEC50 [11] | Emax [12] [%] | Compound | Activity [6] | Activity [7] | Activity [13]
6.66 | 3 (≈ 1.64 µg/mL) | 0.95 | 0.983 | 1.38 | inactive | Active | Active | 6.74 | 28 | O=C(NCc1ccc(NS(=O)(=O)C2CC2)cc1C(F)(F)F)c1ccc2c(ccn2Cc2cccc(F)c2)c1 | Non-Toxic | Toxic | Active
6.72 | 3 (≈ 1.56 µg/mL) | 0.867 | 1.02 | 1.68 | inactive | Active | Active | 6.48 | 19 | CS(=O)(=O)Nc1ccc(CNC(=O)c2ccc3c(ccn3Cc3cccc(F)c3)c2)c(C(F)(F)F)c1 | Non-Toxic | Toxic | Active
